In US11306122B2, “Compositions and methods of inhibiting the binding of plasma IgG autoantibodies to serotonin 2A receptor” (United States Government As Represented By The Department …, priority 2019, dated 2022):
Numbered stars: 1 amine (or outer) side, 2 acyl side, 3 side chain; on linkers, the order of the positions; unused ones are H or OH. Bridge positions count the residues as written; N and C are the ends. Square brackets hold non-standard residues; d marks the D form. Peptide text beside a SMILES is read from it. X1 = CC(=O)NC(C(=O)OC(C(C)C)C(N[*:1])C(=O)[*:2])C(O)C(C)C; PhLac = O=C(O)[CH](O)Cc1ccccc1; NMeT = CN[CH](C(=O)O)[CH](C)O; NMeA = CN[CH](C)C(=O)O; NMeDha = C=C(NC)C(=O)O

Columns and labels:
[1] = test system: N2A mouse neuroblastoma cells; test: Acute N2A neurite retraction induced by schizophrenia plasma autoantibodies; type: cell-based; conditions: for % AutoAB-induced neurite retraction: 20 nM Pt 1 schizophrenia AutoAB; for % of AutoAB-induced neurite retraction: 40 nM SCZ IgG (N = 2), alone 100 ± 0%; for effect on schizophrenia autoantibody-induced neurite retraction: M100907 two-hundred nanomolar, Y27632 ten micromolar, Y254890 one micromolar
Experimental: (§1) Methods: Plasma from five older adults with chronic schizophrenia and eight age-matched patients having another neuropsychiatric, immune or metabolic disorder was subjected to Protein-A affinity chromatography to obtain IgG autoantibodies. Mean neurite retraction (5 minutes) or cell survival (24 hours) was determined in mouse N2A neuroblastoma cells incubated with autoantibodies in the presence or absence of specific antagonists of the Gq/11/PLC/IP3R signaling pathway, Gi-coupled, beta-arrestin2-directed pathways, or LY379268.
Acute neurite retraction assay. Percent of basal neurite length in N2A cells expressing one or more proximally-located dendrite-like process was determined after interval exposure to test substances (Zimering M B, J Endocrinol Diabetes. 2018; 5(2): 10).
A twenty nanomolar concentration of protein-A eluate fraction of plasma from Pt 1 with schizophrenia was incubated with N2A cells in the presence or absence of the indicated concentration of each Gq/11, GPCR antagonist. Results are the mean+/−SD of two experiments.
A forty nanomolar concentration of plasma autoantibodies (AutoAB) from Pt 1 or Pt, schizophrenia, was incubated in the presence or absence of the indicated concentration of RhoA/Rho kinase (ROCK) inhibitor, or individual antagonists of the Gq11/PLC/IP3R signaling pathway. […]

[2] = test system: mouse N2A neuroblastoma cells; test: Acute N2A neurite retraction induced by TBI patient 5-HT2A receptor autoantibodies; type: cell-based; conditions: for effect on TBI autoantibody-induced acute neurite retraction: M100907 250-500 nM, Y27632 10 μM, other concentrations as in Table 17; for % of autoantibody Neurite Retraction from TBI patients: 60 nM IgG of representative TBI patient; for effect on neurite retraction in TBI patient autoantibodies, Example 4: 10 μM Y27632, 1 μM YM25489, 1 μM U73122, 50 μM 2-APB; for % of 5-HT2A receptor Autoantibody Neurite Retraction: 60 nM TBI autoantibodies (alone 100%)
Experimental: Acute neurite retraction. Mouse N2A neuroblastoma cells were maintained in Dulbecco's minimal essential medium with 10% fetal calf serum. […] Neurite retraction represents average neurite length-shortening after five minutes exposure to TBI (5-HT2A receptor) autoantibodies (60-100 nM) in the presence or absence of various G-protein coupled receptor (GPCR) or signaling pathway antagonists.
A 60 nanomolar concentration of the IgG autoantibodies (e.g., 5-HT2A receptor autoantibodies) from a representative TBI patient was incubated with N2A cells in the presence or absence of the indicated concentration of the selective GPCR antagonist.
A 60 nanomolar concentration of 5-HT2A receptor autoantibodies from TBI patients was incubated with N2A cells in the presence or absence of the indicated concentration of Gq11/PLC-gamma/IP3R antagonist or RhoA/Rho kinase pathway inhibitor.
Neurovascular 5-hydroxytryptamine (serotonin) 2A receptor (5-HT2AR) autoantibodies were previously reported to function as long-acting agonists in diabetic angiopathy and subsets of major depression, Parkinson's disease or dementia. The 5-HT2A receptor is highly expressed in specific brain regions underlying cognition, perception and mood regulation. Long-lasting 5-HT2A receptor activation by circulating autoantibodies might contribute to pathophysiology via central and peripheral mechanisms. Since the risk or incidence of Parkinson's disease, depression and dementia increase following traumatic brain injury (TBI), circulating neurotoxic autoantibodies (e.g., 5HT2AR) were tested, characterized and compared with autoantibodies from TBI patients vs. diabetic subsets with or without neurodegenerative disorders. Plasma IgG autoantibodies (e.g., 5-HT2AR autoantibodies) were obtained by protein-A affinity chromatography in ten male TBI patients mean age 64 years old.

[3] = test system: N2A mouse neuroblastoma cells; test: N2A cell survival (MTT) promoted by schizophrenia/psychosis plasma autoantibodies; type: cell-based; conditions: LY379268 5 μM, pertussis toxin 100 ng/mL; for effect alone on N2A cell survival: without autoantibodies; for effect on autoantibody-induced N2A pro-survival/proliferation (words): M100907 500 nM, LY294002 20 μM, 24 hours
Experimental: as §1
N2A cell survival. MTT assay was performed 24 hours after incubation with test substances (Zimering M B, J Endocrinol Diabetes. 2018; 5(2): 10).
Serotonin 2A receptor activation leads to f3-arrestin-2-mediated desensitization and receptor internalization. However, β-arrestin-2 can also couple with diverse signaling pathways leading to enhanced cell proliferation and/or survival promotion.

[4] = test system: N2A cells; test: N2A cell loss (MTT) induced by TBI patient autoantibodies; type: cell-based, mouse; conditions: M100907 250 nM (eight of eight patients); prazosin 850 nM (n=5); one-fiftieth dilution; 24 hours
Experimental: Cell survival was determined with MTT assay.
Mouse neuroblastoma cell loss. N2A cell loss was quantified using an MTT (3-(4,5-dimethylthiazol-2-yl)-2,5-diphenyltetrazolium bromide) tetrazolium reduction assay after overnight incubation with autoantibodies from TBI patients (Zimering M B, Endocrinol Diabetes Metab J. 2019 August; 3(4) pii: 118. Epub 2019 Aug. 14).

[5] = test system: mouse N2A neuroblastoma cells; test: Acute N2A neurite retraction induced by diabetic pathologies' IgG autoantibodies; type: cell-based; conditions: for Mean acute N2a neurite retraction (%): Pt 1 IgG one-fortieth dilution + 20 μg/mL peptide, IgG alone 100 + 0%; for effect on Patient 1 IgG autoantibody-induced N2A neurite retraction: short peptides at 20 μg/mL, pre-incubated 5 minutes, Q..N-18 dose series
Experimental: Methods: Plasma or serum from fifty-six older adults with (n=49) or without (n=7) type 2 diabetes was subjected to Protein-A affinity chromatography to obtain IgG autoantibodies. Binding to a synthetic 18-meric linear synthetic peptide (SEQ ID NO: 1) corresponding to the second extracellular loop of the 5-hydroxytryptamine 2A receptor was tested in a 1/40th or higher dilution of the protein-A eluates. Mean acute neurite retraction (5 minutes) or cell survival (16-24 hours) was determined in mouse N2A neuroblastoma cells incubated with IgG autoantibodies in the presence or absence of three short, linear overlapping peptides comprising the second extracellular loop of the human 5-hydroxytryptamine 2A receptor (SEQ ID NOs: 2, 3 and 4).
N2A Acute Neurite Retraction assay. Acute neurite retraction assay was performed as described in Hu G, et al. Diabetes Care 2007; 30(4): 842-847.
Epitope mapping of region within 5-HT2A receptor, linear synthetic 5-HT2A receptor peptide targeted by autoantibodies. Next an epitope analysis was performed to determine the subregion within the 5-HT2A receptor second extracellular domain that binds to the type 2 diabetes pathologies' autoantibodies. Three overlapping short peptides were synthesized (SEQ ID NOs: 2, 3, and 4). N2a cells expressing neurites were pre-incubated with each of the peptides separately (for 5 minutes) prior to the addition of Patient 1, […] hypertension IgG autoantibodies to determine which of the three peptides could compete for binding to the test diabetic pathologies' autoantibodies causing inhibition of IgG autoantibody-induced neurite retraction.
The indicated concentration of the Q . . . […] Acute N2A neurite retraction was assessed after 5 minutes.

[6] = Patient 1 DM refractory hypertension autoantibody, one sixtieth dilution, 5 minutes, 0 μg/mL peptide: 90 + 5%

COc1ccccc1Oc1c(NS(=O)(=O)c2ccc(C(C)(C)C)cc2)nc(-c2ncccn2)nc1OCCO [Bosentan]
% AutoAB-induced neurite retraction ([1]; antagonist 10 μM): 94 ± 7% | effect on TBI autoantibody-induced acute neurite retraction [2]: little or no significant protective effect | % of autoantibody Neurite Retraction from TBI patients ([2]; antagonist 10 μM): 80%

O=C(c1ccc(F)cc1)C1CCN(CCn2c(=O)[nH]c3ccccc3c2=O)CC1 [Ketanserin]
% AutoAB-induced neurite retraction ([1]; antagonist 500 nM): 43 ± 11% | effect on TBI autoantibody-induced acute neurite retraction [2]: substantially blocked | % of autoantibody Neurite Retraction from TBI patients ([2]; antagonist 1 μM): 26% | % of autoantibody Neurite Retraction from TBI patients ([2]; antagonist 2 μM): 18%

N[C@@]1(C(=O)O)CO[C@H]2[C@H](C(=O)O)[C@H]21 [LY379268]
mean level of neurite retraction in the presence of LY379268 ([1]; 10 μM LY379268, n=12, IgG alone 52±7%): 74±10% | effect alone on neurite retraction ([1]; 5-101.1M concentrations (so in the source), without autoantibodies): no effect | Mean N2A neurite retraction, Pt IgG + LY379268 ([1]; 7.5-10 μM LY379268, mean [IgG] 17 ± 6 nM, N = 12 patients, five minutes, Pt IgG alone 52 ± 7%): 74 ±10%^∧ | IgG autoantibody concentration giving 50% inhibition of N2A neurite outgrowth in the presence of LY379268 ([1]; 10 micromolar LY379268, Pt 1 SCZ IgG, without LY379268: one microgram per milliliter (~7 nM)): ~0.5 microgram per milliliter | IgG autoantibody concentration giving 50% inhibition of N2A neurite outgrowth in the presence of LY379268, molar ([1]; 10 micromolar LY379268, Pt 1 SCZ IgG, without LY379268 ~7 nM): 3.5 nM | effect alone on N2A cell survival [3]: no effect | effect on autoantibody-induced N2A pro-survival/proliferation (words) [3]: significantly blocked

CCCCc1nc(Cl)c(CO)n1Cc1ccc(-c2ccccc2-c2nn[nH]n2)cc1 [Losartan]
% AutoAB-induced neurite retraction ([1]; antagonist 10 μM): 72 ± 8%

NCCOB(c1ccccc1)c1ccccc1 [Peptide 2-APB]
% of AutoAB-induced neurite retraction ([1]; inhibitor 50 μM): 17 ± 1.9% | effect on neurite retraction in TBI patient autoantibodies, Example 4 [2]: significantly blocked | % of 5-HT2A receptor Autoantibody Neurite Retraction ([2]; inhibitor 25 μM): 0%

COc1ccc2c(c1)CC[C@@H]1[C@@H]2CC[C@]2(C)[C@@H](NCCCCCCN3C(=O)C=CC3=O)CC[C@@H]12 [Peptide U73122]
% of AutoAB-induced neurite retraction ([1]; inhibitor 1 μM): 28 ± 15% | effect on neurite retraction in TBI patient autoantibodies, Example 4 [2]: significantly blocked | % of 5-HT2A receptor Autoantibody Neurite Retraction ([2]; inhibitor 1 μM): 10%

C[C@@H](N)[C@H]1CC[C@H](C(=O)Nc2ccncc2)CC1 [Peptide Y27632]
effect on schizophrenia autoantibody-induced neurite retraction [1]: completely prevented | % of AutoAB-induced neurite retraction ([1]; inhibitor 10 μM): 0 ± 0%

COc1cc2nc(N3CCN(C(=O)c4ccco4)CC3)nc(N)c2cc1OC [Prazosin]
% AutoAB-induced neurite retraction ([1]; antagonist 1 μM): 72 ± 10% | effect on accelerated N2A cell death/loss by TBI autoantibodies [4]: much less protective effect

Cc1cc(NC(=O)Nc2ccc3c(ccn3C)c2)sn1 [SB204741]
% AutoAB-induced neurite retraction ([1]; antagonist 1 μM): 100 ± 0% | effect on TBI autoantibody-induced acute neurite retraction [2]: no significant protective effect | % of autoantibody Neurite Retraction from TBI patients ([2]; antagonist 1 μM): 70%

C=C1C(=O)NC(C)C(=O)N(C)C(C)C(=O)NC(C(OC(=O)C(NC(C)=O)C(O)C(C)C)C(C)C)C(=O)N(C)C(C(C)OC)C(=O)OC(C)C(NC(C)=O)C(=O)OC(Cc2ccccc2)C(=O)N1C (centres unmarked) [YM254890] (Ac-T[PhLac][NMeDha]A[NMeA][X1][NMeT](Me); ester 1-C; configuration not given here)
effect on schizophrenia autoantibody-induced neurite retraction [1]: completely prevented | % of AutoAB-induced neurite retraction ([1]; inhibitor 1 μM): 0 ± 0% | effect on neurite retraction in TBI patient autoantibodies, Example 4 [2]: significantly blocked | % of 5-HT2A receptor Autoantibody Neurite Retraction ([2]; inhibitor 1 μM): 11%

Pertussis toxin
effect alone on N2A cell survival [3]: no effect | effect on autoantibody-induced N2A pro-survival/proliferation (words) [3]: significantly blocked | effect on autoantibody-induced N2A pro-survival/proliferation (words) ([3]; listed as pertussis toxin): blocked

QDDSKVF [Peptide 3, short overlapping peptide of 5-HT2A receptor second extracellular loop]
Mean acute N2a neurite retraction (%) ([5]; 5 minutes): 87 + 19% | effect on Patient 1 IgG autoantibody-induced N2A neurite retraction [5]: no significant effect

QDDSKVFKEGSCLLADDN [Peptide 1]
acute N2A neurite withdrawal, autoantibody + Q...N-18 at 3 μg/mL [5, 6]: 25 + 7% | acute N2A neurite withdrawal, autoantibody + Q...N-18 at 5 μg/mL [5, 6]: 0 + 0% | effect on Patient 1 IgG autoantibody-induced N2A neurite retraction [5]: dose-dependently inhibited | Half-maximal inhibition of autoantibody-induced acute neurite retraction ([5]; sixty nanomolar protein-A eluate of Patient 1 plasma): 2 µg/mL | IC50 ([5]; sixty nanomolar protein-A eluate of Patient 1 plasma, read-out: Half-maximal inhibition of autoantibody-induced acute neurite retraction, corresponding molar concentration): ~1000 nM

VFKEGSC [Peptide 4, short overlapping peptide of 5-HT2A receptor second extracellular loop]
Mean acute N2a neurite retraction (%) ([5]; 5 minutes): 88 + 13% | effect on Patient 1 IgG autoantibody-induced N2A neurite retraction [5]: no significant effect
